# Source: US20040005537A1, “Method of identifying toxic agents using differential gene expression” (priority 2000, published 2004)
# Experiments:
# rat heart tissue = test: GENECALLING differential gene expression analysis after dosing of serotonin modulating agents; format: in vivo, Sprague Dawley rats
# How it was run: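 Rats dosed with serotonin modulating agents, controls given sterile water or canola oil; tissue taken 24 h after the last dose. Total RNA converted to cDNA and profiled by GENECALLING differential expression analysis; fragments changed more than ±1.5-fold were selected.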
# [1] = cited from earlier work
smiles,measurement,setting,value
CCN[C@@H](C)Cc1cccc(C(F)(F)F)c1 [dexfenfluramine],"Effects on Transcription Level: Novel gene fragment, 445 bp, 85% SI to human skeletal muscle alpha 2 actinin [M86406]",rat heart tissue; CARDIOTOX 72,−1.7 fold
same,"Effects on Transcription Level: Novel gene fragment, 246 bp, 89% SI to mouse ponsin-1 [AF078667]",rat heart tissue; CARDIOTOX 73,−3.1 fold
same,"Effects on Transcription Level: Novel gene fragment, 126 bp, 77% SI to human DNA sequence from cosmid V311G7, between markers DXS366 and DXS87 on chromosome X [Z69304]",rat heart tissue; CARDIOTOX 74,+2.0 fold
same,"Effects on Transcription Level: Novel gene fragment, 370 bp",rat heart tissue; CARDIOTOX 75,−2.6 fold
same,"Effects on Transcription Level: Novel gene fragment, 337 bp, 78% SI to novel human protein AHNAK [M80899]",rat heart tissue; CARDIOTOX 76,−4.2 fold
same,"Effects on Transcription Level: Novel gene fragment, 100 bp, 93% SI to human KIAA0750 protein [ABO18293]",rat heart tissue; CARDIOTOX 77,−7.5 fold
same,"Effects on Transcription Level: Novel gene fragment, 44 bp",rat heart tissue; CARDIOTOX 78,−6.5 fold
same,"Effects on Transcription Level: Novel gene fragment, 698 bp, 93% SI to mouse plenty-of-prolines-101 [AF062655]",rat heart tissue; CARDIOTOX 79,−2.3 fold
same,"Effects on Transcription Level: Novel gene fragment, 660 bp, 84% SI to mouse membrane protein TMS-2 [AF181685]",rat heart tissue; CARDIOTOX 80,−3.6 fold
same,"Effects on Transcription Level: Novel gene fragment, 115 bp",rat heart tissue; CARDIOTOX 81,−4.0 fold
same,"Effects on Transcription Level: Novel gene fragment, 294 bp, 95% SI to mouse Ndr1 related protein Ndr2 [AB033921]",rat heart tissue; CARDIOTOX 82,−2.0 fold
same,"Effects on Transcription Level: Novel gene fragment, 198 bp",rat heart tissue; CARDIOTOX 83,+2.5 fold
same,"Effects on Transcription Level: Novel gene fragment, 730 bp, 86% SI to mouse E800 [Y10968]",rat heart tissue; CARDIOTOX 84,−2.0 fold
same,"Effects on Transcription Level: Novel gene fragment, 294 bp, 98% SI to cysteine conjugate beta-lyase [S61960]",rat heart tissue; CARDIOTOX 85,−2.0 fold
same,Effects on Transcription Level: Aconitase,"rat heart tissue; CARDIOTOX 86, GenBank A1243266",−3.1 fold
same,Effects on Transcription Level: Ribosomal protein L7,"rat heart tissue; CARDIOTOX 87, GenBank M17422",+2.5 fold
same,Effects on Transcription Level: Ribosomal protein L9,"rat heart tissue; CARDIOTOX 88, GenBank X51706",+10.0 fold
same,Effects on Transcription Level: Ribosomal protein L12,"rat heart tissue; CARDIOTOX 89, GenBank X53504",−2.2 fold
same,"Effects on Transcription Level: 18S, 5.8S, and 28S ribosomal RNA's","rat heart tissue; CARDIOTOX 90, GenBank V01270",+5 fold
same,Effects on Transcription Level: Pyruvate dehydrogenase kinase 2 (PDK2),"rat heart tissue; CARDIOTOX 91, GenBank U10357",−6.9 fold
same,Effects on Transcription Level: D-Binding Protein (DBP),"rat heart tissue; CARDIOTOX 92, GenBank J03179",−1.9 fold
same,Effects on Transcription Level: Lipoprotein lipase,"rat heart tissue; CARDIOTOX 93, GenBank L03294",−2.2 fold
same,Effects on Transcription Level: Non-neuronal enolase,"rat heart tissue; CARDIOTOX 94, GenBank X02610",+3.5 fold
same,Effects on Transcription Level: Glycogen phosphorylase (muscle isozyme),"rat heart tissue; CARDIOTOX 95, GenBank L10669",−2.0 fold
same,Effects on Transcription Level: Cytochrome c oxidase subunit IV,"rat heart tissue; CARDIOTOX 96, GenBank X14209",+10.0 fold
same,Effects on Transcription Level: Alpha-globin,"rat heart tissue; CARDIOTOX 97, GenBank M17083",+3.0 fold
same,Effects on Transcription Level: Beta-globin,"rat heart tissue; CARDIOTOX 98, GenBank X06701",+3.1 fold
same,Effects on Transcription Level: Myoglobin,"rat heart tissue; CARDIOTOX 99, GenBank AF197916",+4.7 fold
same,Effects on Transcription Level: Titin,"rat heart tissue; CARDIOTOX 100, GenBank L38717",−2.0 fold
same,Effects on Transcription Level: Skeletal muscle actin,"rat heart tissue; CARDIOTOX 101, GenBank V01218",−18.2 fold
same,Effects on Transcription Level: Myosin light chain 2 (MLC2),"rat heart tissue; CARDIOTOX 102, GenBank M11851",+2.6 fold
same,Effects on Transcription Level: Alpha cardiac myosin heavy chain,"rat heart tissue; CARDIOTOX 103, GenBank X15938",−3.4 fold
same,Effects on Transcription Level: Troponin I,"rat heart tissue; CARDIOTOX 104, GenBank U77354",+1.8 fold
same,Effects on Transcription Level: Cardiac calsequestrin,"rat heart tissue; CARDIOTOX 105, GenBank AF001334",−2.9 fold
same,Effects on Transcription Level: Sulfated glycoprotein 2,"rat heart tissue; CARDIOTOX 106, GenBank M16975",−1.8 fold
same,Effects on Transcription Level: Aquaporin 7,"rat heart tissue; CARDIOTOX 107, GenBank AB000507",+1.5 fold
same,Effects on Transcription Level: Carnitine/acylcarnitine carrier protein,"rat heart tissue; CARDIOTOX 108, GenBank X97831",−2.5 fold
same,Effects on Transcription Level: Glu-Pro Dipeptide Repeat,"rat heart tissue; CARDIOTOX 109, GenBank U40628",−5.0 fold
same,Effects on Transcription Level: Cystatin beta,"rat heart tissue; CARDIOTOX 110, GenBank X54737",+2.5 fold
same,"Effects on Transcription Level: Novel gene fragment, 593 bp, 90% SI to human calcineurin B-like protein [Z08983]",rat heart tissue; CARDIOTOX 111,+1.9 fold
same,"Effects on Transcription Level: Novel gene fragment, 179 bp, 88% SI to human titin [X90568]",rat heart tissue; CARDIOTOX 112,−3.1 fold
same,"Effects on Transcription Level: Novel gene fragment, 700 bp, 91% SI to mouse periplakin (PPL) [AF116523]",rat heart tissue; CARDIOTOX 113,+2.5 fold
same,Effects on Transcription Level: Long chain acyl-CoA dehydrogenase (LCAD),"rat heart tissue; CARDIOTOX 114, GenBank J05029",+1.7 fold
same,Effects on Transcription Level: Sulfated glycoprotein 1 (SGP-1),"rat heart tissue; CARDIOTOX 115, GenBank M19936",−1.7 fold
same,Effects on Transcription Level: Catalase,"rat heart tissue; CARDIOTOX 116, GenBank M11670",+2.1 fold
same,Effects on Transcription Level: Alpha-fodrin (A2A) (Nonerythroid spectrin alpha subunit),"rat heart tissue; CARDIOTOX 117, GenBank AF084186",−1.7 fold
same,Effects on Transcription Level: Cardiac specific sodium channel alpha-subunit,"rat heart tissue; CARDIOTOX 118, GenBank M27902",−2.0 fold
same,Effects on Transcription Level: Glu-Pro Dipeptide Repeat,"rat heart tissue; CARDIOTOX 119, GenBank U40628",+4.6 fold
same,"Effects on Transcription Level: Novel gene fragment, 200 bp, 64% SI to human KIAA0733 protein [AB018316]",rat heart tissue; CARDIOTOX 120,−1.6 fold
same,Effects on Transcription Level: RNA polymerase II transcription factor SIII (p18 subunit),"rat heart tissue; CARDIOTOX 121, GenBank L42855",+2.0 fold
same,Effects on Transcription Level: Protein-tyrosine phosphalase (LRP),"rat heart tissue; CARDIOTOX 122, GenBank L01702",+1.7 fold
same,Effects on Transcription Level: Skeletal muscle selenoprotein W (SelW),"rat heart tissue; CARDIOTOX 123, GenBank U25264",−1.6 fold
same,Effects on Transcription Level: Sarcoplasmic reticulum 2+-Ca-ATPase,"rat heart tissue; CARDIOTOX 124, GenBank X15635",−2.0 fold
same,Effects on Transcription Level: Ribosomal protein S7,"rat heart tissue; CARDIOTOX 125, GenBank X53377",+1.7 fold
same,Effects on Transcription Level: Ribophorin I,"rat heart tissue; CARDIOTOX 126, GenBank X05300",+2.0 fold
same,Effects on Transcription Level: Beta cardiac myosin heavy chain,"rat heart tissue; CARDIOTOX 127, GenBank X15939",+2.4 fold
same,Effects on Transcription Level: ADP-ribosylation factor 1,"rat heart tissue; CARDIOTOX 128, GenBank L12380",+1.1 fold
same,Effects on Transcription Level: Laminin receptor,"rat heart tissue; CARDIOTOX 129, GenBank U04942",+2.6 fold
same,"Effects on Transcription Level: Novel gene fragment, 206 bp, 89% SI to human seryl-tRNA synthetase [X91257]",rat heart tissue; CARDIOTOX 130,+1.8 fold
same,Effects on Transcription Level: Annexin VI,"rat heart tissue; CARDIOTOX 131, GenBank X86086",−10.0 fold
same,"Effects on Transcription Level: Novel gene fragment, 325 bp, 90% SI to mouse N-RAP [U76618]",rat heart tissue; CARDIOTOX 132,+1.7 fold
same,"Effects on Transcription Level: Novel gene fragment, 61 bp (CARDIOTOX 134)",rat heart tissue; LD10 dose for three days,−1.8 fold
same,"Effects on Transcription Level: Novel gene fragment, 337 bp (CARDIOTOX 133)",rat heart tissue; LD10 dose for three days,−2.0 fold
same,"Effects on Transcription Level: Novel gene fragment, 378 bp, 88% SI to human coatomer protein (COPA) [U24105] (CARDIOTOX 138)",rat heart tissue; LD10 dose for three days,−2.0 fold
same,Effects on Transcription Level: Long chain 3-ketoacyl-CoA thiolase (CARDIOTOX 136),"rat heart tissue; LD10 dose for three days, GenBank D16479",−1.5 fold
same,Effects on Transcription Level: TATA-binding protein interacting protein 120 (TIP120) (CARDIOTOX 135),"rat heart tissue; LD10 dose for three days, GenBank D87671",+2.3 fold
same,Effects on Transcription Level: Serine protease (CARDIOTOX 139),"rat heart tissue; LD10 dose for three days, GenBank D88250",+1.6 fold
same,Effects on Transcription Level: Thymosin beta-4 (CARDIOTOX 137),"rat heart tissue; LD10 dose for three days, GenBank M34043",+1.4 fold
same,Effects on Transcription Level: Annexin VI (no CARDIOTOX assignment given),"rat heart tissue; LD10 dose for three days, GenBank X86086",−5.1 fold
same,classification as cardiotoxic or noncardiotoxic serotonin modulating agent,[1]; grouping used to generate the distinguishing gene profiles,cardiotoxic
same,side effect reported in a subset of patients,[1]; patients to which they are administered,valvular heart disease
